# Assay results published in US7858635B2 (priority 2005, dated 2010).
# Like-named read-outs stand apart in the source and are kept apart here.
# Tests used:
# M1 muscarinic receptor = target: T1, M1 muscarinic receptor (Homo sapiens, UniProt P11229); test: Functional mobilization of intracellular calcium (FLIPR, Fluo-3), M1-CHO cells; type: cell-based; conditions: for Emax: read-out: M1 Efficacy
# T1 construct: expressed in transfected cells; host or cells: CHO cells (M1-CHO, under zeocin and G418 selection)
# T1 sequence (P11229 1-460): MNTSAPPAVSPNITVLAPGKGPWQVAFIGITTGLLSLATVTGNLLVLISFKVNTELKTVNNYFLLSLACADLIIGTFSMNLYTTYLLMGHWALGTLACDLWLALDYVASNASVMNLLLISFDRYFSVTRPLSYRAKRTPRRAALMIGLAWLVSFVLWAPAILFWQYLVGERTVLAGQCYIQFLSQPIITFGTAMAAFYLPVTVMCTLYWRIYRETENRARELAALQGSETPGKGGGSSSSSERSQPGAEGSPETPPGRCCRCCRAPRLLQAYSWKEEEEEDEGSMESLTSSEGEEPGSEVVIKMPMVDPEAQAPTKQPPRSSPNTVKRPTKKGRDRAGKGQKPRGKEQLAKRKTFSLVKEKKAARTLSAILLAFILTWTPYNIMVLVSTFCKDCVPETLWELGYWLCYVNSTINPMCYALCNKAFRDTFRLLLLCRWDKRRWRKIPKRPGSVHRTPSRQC
# How it was run: (§1)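 Fluo-3 read-out, ex 488/em 540 nm, 60 sec on FLIPR 3. For agonist mode, compound added directly; for inhibition, 15 min compound pre-incubation before carbachol at EC80 (added as a 3× solution), or co-application. Buffer pH 7.4 with 1 mM probenecid; DMSO 0.5%.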
# M4 muscarinic receptor = target: T2, M4 muscarinic receptor (Homo sapiens, UniProt P08173); test: Functional mobilization of intracellular calcium (FLIPR, Fluo-3), M4-CHO cells; type: cell-based; conditions: for Emax: read-out: M4 Efficacy
# T2 construct: expressed in transfected cells; host or cells: CHO cells (M4-CHO, under puromycin, zeocin and blasticidin selection)
# T2 sequence (P08173 1-479): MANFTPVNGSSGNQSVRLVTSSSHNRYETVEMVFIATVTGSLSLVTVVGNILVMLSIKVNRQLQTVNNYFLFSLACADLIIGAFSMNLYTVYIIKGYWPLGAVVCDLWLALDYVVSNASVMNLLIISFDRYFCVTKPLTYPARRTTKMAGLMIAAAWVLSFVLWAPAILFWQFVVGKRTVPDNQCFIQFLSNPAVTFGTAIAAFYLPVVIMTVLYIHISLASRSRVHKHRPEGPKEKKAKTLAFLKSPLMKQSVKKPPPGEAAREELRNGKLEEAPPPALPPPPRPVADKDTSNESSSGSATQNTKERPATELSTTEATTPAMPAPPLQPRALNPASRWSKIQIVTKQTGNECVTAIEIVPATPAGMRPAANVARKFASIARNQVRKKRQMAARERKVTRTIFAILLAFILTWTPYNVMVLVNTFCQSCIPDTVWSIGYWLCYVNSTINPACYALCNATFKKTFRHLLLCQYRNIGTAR
# How it was run: as §1
# [1] = compound nos. 1-454, 100% efficacy is the maximum response obtained with the Carbachol control
# [2] = compound nos. 1-454, M1-CHO cells, calcium mobilization
# [3] = compound nos. 1-454, M4-CHO cells, calcium mobilization
# [4] = compound nos. 455-509, 100% efficacy is the maximum response obtained with the Carbachol control
SMILES,Emax (M1 muscarinic receptor; [1]),M1 Activity (M1 muscarinic receptor; [2]),Emax (M4 muscarinic receptor; [1]),M4 Activity (M4 muscarinic receptor; [3]),also measured
CCOC(=O)N1C2CCC1CC(N1CCC3(CC1)CN(C(=O)O[C@@H]1CCOC1)c1ccc(F)cc13)C2 (stereo partly shown) [compound 344],65 to 85%,+++ (activity was measured to be less than or equal to 0.7 μM),< 55%,++ (activity was measured to be between 0.1 μM and 4.0 μM),
CC(=O)N1CC2(CCN(C3CCN(C(=O)OC(C)C)CC3)CC2)c2cc(C)ccc21 [compound 380],65 to 85%,,55 to 70%,,M1 Activity (M1 muscarinic receptor; compound nos. 1-454): +++ (activity was measured to be less than or equal to 0.7 μM); M4 Activity (M4 muscarinic receptor; compound nos. 1-454): ++ (activity was measured to be between 0.1 μM and 4.0 μM)
CC#CCOC(=O)N1CCC(N2CCC3(CC2)CN(C(C)=O)c2ccc(F)cc23)CC1 [compound 102],65 to 85%,+++ (activity was measured to be less than or equal to 0.7 μM),55 to 70%,++ (activity was measured to be between 0.1 μM and 4.0 μM),
Cc1ccc2c(c1)C1(CCN(C3CC4CCC3C4)CC1)CN2C(=O)OC(C)(C)C (stereo not shown) [compound 116],65 to 85%,+++ (activity was measured to be less than or equal to 0.7 μM),< 55%,++ (activity was measured to be between 0.1 μM and 4.0 μM),
CCOC(=O)N1C2CCC1CC(N1CCC3(CC1)CN(C(=O)Oc1ccc(F)cc1)c1ccc(F)cc13)C2 (stereo not shown) [compound 298],,+ (activity was measured to be greater than or equal to 3.0 μM),,+ (activity was measured to be greater than or equal to 4.0 μM),Emax (M1 muscarinic receptor): < 65%; Emax (M4 muscarinic receptor): 55 to 70%
CCOC(=O)N1C2CCC1CC(N1CCC3(CC1)c1ccccc1C(=O)C3(C)C)C2 (stereo not shown) [compound 278],65 to 85%,++ (activity was measured to be between 0.7 μM and 3.0 μM),55 to 70%,++ (activity was measured to be between 0.1 μM and 4.0 μM),
CCOC(=O)N1CCC(N2CCC3(CC2)CN(C(=O)N2CCOCC2)c2ccc(F)cc23)CC1 [compound 290],< 65%,+++ (activity was measured to be less than or equal to 0.7 μM),< 55%,+ (activity was measured to be greater than or equal to 4.0 μM),
CCCOC(=O)N1CCC(CN2CCC3(CC2)C[C@H](NC(C)=O)c2ccccc23)CC1 [compound 36],65 to 85%,+++ (activity was measured to be less than or equal to 0.7 μM),> 70%,++ (activity was measured to be between 0.1 μM and 4.0 μM),
CC(=O)NC1CC2(CCN(C3CC4CCC(C4)C3)CC2)c2ccccc21 (stereo not shown) [compound 8],< 65%,++ (activity was measured to be between 0.7 μM and 3.0 μM),55 to 70%,++ (activity was measured to be between 0.1 μM and 4.0 μM),
CN(C)C(=O)N1CCC2(CCN(C3CC4CCC(C3)N4c3cnccn3)CC2)c2ccccc21 (stereo not shown) [compound 486],,,,,Emax (M1 muscarinic receptor; [4]): > 100%; M1 Activity (M1 muscarinic receptor; compounds 455-509): +++ (activity was measured to be less than or equal to 2.0 μM); Emax (M4 muscarinic receptor; [4]): 25 to 100%; M4 Activity (M4 muscarinic receptor; compounds 455-509): ++ (activity was measured to be between 2.0 μM and 5.0 μM)
CCOC(=O)N1CCC(N2CCC3(CC2)CN(C(=O)C(C)C)c2ccc(F)cc23)CC1 [compound 142],65 to 85%,+++ (activity was measured to be less than or equal to 0.7 μM),> 70%,+ (activity was measured to be greater than or equal to 4.0 μM),
CCOC(=O)N1CCC(N2CCC3(CC2)CN(C(=O)c2cccnc2)c2ccc(F)cc23)CC1 [compound 144],> 85%,+++ (activity was measured to be less than or equal to 0.7 μM),> 70%,+++ (activity was measured to be less than or equal to 0.1 μM),
CC(=O)N1CC2(CCN(CC3CCN(C(=O)OC(C)C)CC3)CC2)c2cc(C)ccc21 [compound 404],< 65%,,< 55%,,M1 Activity (M1 muscarinic receptor; compound nos. 1-454): ++ (activity was measured to be between 0.7 μM and 3.0 μM); M4 Activity (M4 muscarinic receptor; compound nos. 1-454): + (activity was measured to be greater than or equal to 4.0 μM)
Fc1ccc2c(c1)C1(CCN(C3CCC4CCC3C4)CC1)CN2 (stereo not shown) [compound 111],65 to 85%,+++ (activity was measured to be less than or equal to 0.7 μM),< 55%,++ (activity was measured to be between 0.1 μM and 4.0 μM),
CN(C)C(=O)N1CC2(CCN(C3CCN(c4cnc5ccccc5n4)CC3)CC2)c2cc(F)ccc21 [compound 460],,,,,Emax (M1 muscarinic receptor; [4]): > 100%; M1 Activity (M1 muscarinic receptor; compounds 455-509): +++ (activity was measured to be less than or equal to 2.0 μM); Emax (M4 muscarinic receptor; [4]): 25 to 100%; M4 Activity (M4 muscarinic receptor; compounds 455-509): ++ (activity was measured to be between 2.0 μM and 5.0 μM)
CCOC(=O)N1CCC(N2CCC3(CC2)CN(C(C)=O)c2ccc(F)cc23)CC1 [compound 413],< 65%,,< 55%,,M1 Activity (M1 muscarinic receptor; compound nos. 1-454): +++ (activity was measured to be less than or equal to 0.7 μM); M4 Activity (M4 muscarinic receptor; compound nos. 1-454): ++ (activity was measured to be between 0.1 μM and 4.0 μM)
CC(=O)NC1CC2(CCN(CC3CC4C=CC3C4)CC2)c2ccccc21 (stereo not shown) [compound 180],65 to 85%,+++ (activity was measured to be less than or equal to 0.7 μM),55 to 70%,+++ (activity was measured to be less than or equal to 0.1 μM),
CCOC(=O)N1CCC(N2CCC3(CC2)CN(C(C)=O)c2ccc(-c4ccc(C(C)=O)cc4)cc23)CC1 [compound 221],65 to 85%,++ (activity was measured to be between 0.7 μM and 3.0 μM),< 55%,+ (activity was measured to be greater than or equal to 4.0 μM),
CCOC(=O)N1C2CCC1CC(N1CCC3(CC1)CN(C(=O)N(C)C)c1ccc(F)cc13)C2 (stereo not shown) [compound 362],65 to 85%,++ (activity was measured to be between 0.7 μM and 3.0 μM),< 55%,+ (activity was measured to be greater than or equal to 4.0 μM),
CCCOC(=O)N1CCC(N2CCC3(CC2)CN(C(C)=O)c2ccc(C)cc23)CC1 [compound 252],< 65%,+ (activity was measured to be greater than or equal to 3.0 μM),55 to 70%,+ (activity was measured to be greater than or equal to 4.0 μM),
CCOC(=O)N1CCC(CN2CCC3(CC2)CN(C(C)=O)c2ccc(C)cc23)CC1 [compound 46],> 85%,+++ (activity was measured to be less than or equal to 0.7 μM),55 to 70%,+++ (activity was measured to be less than or equal to 0.1 μM),
COCCOC(=O)N1CC2(CCN(C3CC4CCC(C3)N4C(=O)O[C@@H]3CCOC3)CC2)c2cc(F)ccc21 (stereo partly shown) [compound 304],65 to 85%,+++ (activity was measured to be less than or equal to 0.7 μM),< 55%,+ (activity was measured to be greater than or equal to 4.0 μM),
